According to patent US9006467B2, “1,2,3-triazole containing artemisinin compounds and process for preparation thereof” (Councel of Scientific & Industrial Research, priority 2011, dated 2015):

Assays:
[1] = system: colon HCT-15 human cancer cell line; assay: In vitro cytotoxicity against human cancer cell lines (sulforhodamine B), colon HCT-15; format: cell-based; settings: 48 hours, read-out: % GROWTH INHIBITION colon HCT-15; for inhibition at 50 µM: 5 × 10^−5 M
leukaemia THP-1 = assay: In vitro cytotoxicity against human cancer cell lines (sulforhodamine B), leukaemia THP-1; format: cell-based; settings: 48 hours, read-out: % GROWTH INHIBITION leukaemia THP-1; for inhibition at 10 µM: 1 × 10^−5 M; for inhibition at 50 µM: 5 × 10^−5 M
Procedure: (§1) The human cancer cell lines procured from National Cancer Institute, Frederick, U.S.A., were used in present study. Cells were grown in tissue culture flasks in complete growth medium (RPMI-1640 medium with 2 mM glutamine, 100 μg/mL streptomycin, pH 7.4, sterilized by filtration and supplemented with 10% fetal bovine serum and 100 units/ml penicillin before use) at 37 QC in an atmosphere of 5% CO2 and 90% relative humidity in a carbon dioxide incubator. The cells at subconfluent stage were harvested from the flask by treatment with trypsin (0.05% in PBS containing 0.02% EDTA) for determination of cytotoxicity. The cell suspension of the required cell density was prepared in complete growth medium with gentamycin (50 μg/mL) for determination of cytotoxicity.
(§2) Stock solutions of 2×10^−2M of test materials were prepared in DMSO. The stock solutions were serially diluted with complete growth medium containing 50 μg/ml of gentamycin to obtain working test solution of 2×10^−5M to obtain final concentration of 1×10^−5M respectively.
(§3) In vitro cytotoxicity against human cancer cell lines was determined (Monks et al., J. Natl. Cancer Inst. 1991, 83, 757-766). The 100 μL of cell suspension was added to each well of the 96-well tissue culture plate. The cells were incubated for 24 hours (at 37° C. in an atmosphere of 5% CO2 and 90% relative humidity in a carbon dioxide incubator). Test materials in complete growth medium (100 μL) were added after 24 hours incubation to the wells containing cells. The plates were further incubated for 48 hours in a carbon dioxide incubator after addition of test material. The cell growth was stopped by gently layering trichloroacetic acid (50 μL, 50% w/v) on top of the medium in all the wells. The plates were incubated at 4° C. for one hour to fix the cells attached to the bottom of the wells. The liquid of all the wells was then gently decanted and discarded. The plates were washed five times with distilled water and air-dried. Cell growth was measured by staining with sulforhodamine B dye (Skehan et al., J. Natl. Cancer Inst. 1990, 82, 1107-1112). The adsorbed dye was dissolved in Tris-Buffer (100 μL, 0.01M, pH 10.4) and plates were gently stirred for 10 minutes on a mechanical stirrer. The optical density (OD) was recorded on ELISA reader at 540 nm.
(§4) The cell growth was calculated by subtracting mean OD value of respective blank from the mean OD value of experimental set. Percent growth in presence of test material was calculated considering the growth in absence of any test material as 100% and in turn percent growth inhibition in presence of test material was calculated. Suitable blank, controls and positive controls were included in the study.

[2] = system: cell line panels consisting of 60 lines; settings: nine disease-related subpanels; cited from earlier work
Lung cancer cell A-549 = assay: In vitro cytotoxicity against human cancer cell lines (sulforhodamine B), Lung A-549; format: cell-based; settings: 48 hours, read-out: % GROWTH INHIBITION Lung A-549; for inhibition at 10 µM: A549, 1 × 10^−5 M; for inhibition at 50 µM: A549, 5 × 10^−5 M
Procedure: as §1, §2, §3, §4

P388 leukemia = settings: NCI Report on NSC 369397; cited from earlier work
[3] = system: Ehrlich ascites tumor (EAT) cells; settings: MTT assay, read-out: IC50 (drug concentration causing 50% growth inhibition of the tumor cells); cited from earlier work
[4] = system: colon HCT-15 human cancer cell line; assay: In vitro cytotoxicity against human cancer cell lines (sulforhodamine B), colon HCT-15; format: cell-based; settings: 1 × 10^−5 M, 48 hours, read-out: % GROWTH INHIBITION colon HCT-15
Procedure: as §1, §2, §3, §4

CMV [5] = settings: cited from earlier work
[6] = system: human liver cell line of HEP-2 type; assay: In vitro cytotoxicity against human cancer cell lines (sulforhodamine B), Liver HEP-2; format: cell-based; settings: 1 × 10^−5 M, 48 hours
Procedure: as §1, with “The cell suspension of the required cell density was prepared in complete growth medium with gentamycin (50 μg/mL) for determination of cytotoxicity.” left out
In vitro cytotoxicity against human cancer cell lines was determined (Monks et al., J. Natl. Cancer Inst. 1991, 83, 757-766). […] Cell growth was measured by staining with sulforhodamine B dye (Skehan et al., J. Natl. Cancer Inst. 1990, 82, 1107-1112). […] The optical density (OD) was recorded on ELISA reader at 540 nm.
as §4, with “Suitable blank, controls and positive controls were included in the study.” left out

CMV [7] = settings: cited from earlier work; remark: listed apart in the source

SMILES	inhibition at 50 µM [1]	inhibition at 10 µM (Lung cancer cell A-549)	inhibition at 50 µM (Lung cancer cell A-549)	inhibition at 10 µM [4]	inhibition at 10 µM (leukaemia THP-1)	inhibition at 50 µM (leukaemia THP-1)	also measured
O=c1[nH]cc(F)c(=O)[nH]1 [5-Fluorouracil, reference compound]							inhibition at 20 µM ([1]; 2 × 10^−5 M): 65%; inhibition at 20 µM (leukaemia THP-1; 2 × 10^−5 M): 73%
C[C@@H]1CC[C@H]2[C@@H](C)C(=O)O[C@@H]3O[C@@]4(C)CC[C@@H]1[C@]32OO4 [Artemisinin, artemisinin]	31%	19%	29%	29%			anticancer activity in 60 cell line panel [2]: very little anticancer activity; activity against P388 leukemia (P388 leukemia): inactive; IC50 [3]: 29.8 µM; anti-CMV activity, in words (CMV [5]; in-vitro): lower anti-CMV activity compared to artesunate
C[C@H]1[C@H](OCc2cn(-c3ccc(-c4ccc(-n5cc(CO[C@@H]6O[C@@H]7O[C@@]8(C)CC[C@H]9[C@H](C)CC[C@@H]([C@H]6C)[C@@]79OO8)nn5)cc4)cc3)nn2)O[C@@H]2O[C@@]3(C)CC[C@H]4[C@H](C)CC[C@@H]1[C@@]24OO3 [Compound 12]	78%	56%	64%	75%	75%	80%	
C[C@H]1[C@H](OCCc2cn(-c3ccc(-c4ccc(-n5cc(CCO[C@@H]6O[C@@H]7O[C@@]8(C)CC[C@H]9[C@H](C)CC[C@@H]([C@H]6C)[C@@]79OO8)nn5)cc4)cc3)nn2)O[C@@H]2O[C@@]3(C)CC[C@H]4[C@H](C)CC[C@@H]1[C@@]24OO3 [Compound 13]	66%	41%	46%	56%	63%	82%	
C[C@H]1[C@H](OCc2cn(C3O[C@@H]4O[C@@]5(C)CC[C@H]6[C@H](C)CC[C@@H]([C@H]3C)[C@@]46OO5)nn2)O[C@@H]2O[C@]3(C)CC[C@H]4[C@H](C)CC[C@@H]1[C@@]24OO3 (some centres unmarked) [Compound 14]	63%		22%			62%	
C[C@H]1[C@H](OCCc2cn(C3O[C@@H]4O[C@@]5(C)CC[C@H]6[C@H](C)CC[C@@H]([C@H]3C)[C@@]46OO5)nn2)O[C@@H]2O[C@]3(C)CC[C@H]4[C@H](C)CC[C@@H]1[C@@]24OO3 (some centres unmarked) [Compound 15]	70%	29%	48%	66%	78%	79%	
CO[C@@]12[C@H](COC(N)=O)C3=C(C(=O)C(C)=C(N)C3=O)N1C[C@@H]1N[C@@H]12 [Mitomycin-c]							% GROWTH INHIBITION Liver HEP-2 [6]: 58%
C[C@H]1[C@H](OC(=O)CCC(=O)O)O[C@@H]2O[C@@]3(C)CC[C@H]4[C@H](C)CC[C@@H]1[C@@]24OO3 [artesunate, sodium artesunate]							CMV replication in rat CMV model (CMV [7]): inhibit CMV replication; in-vitro inhibition of clinical isolates (CMV [5]; 11.1 μM): 50-80%; cytotoxicity (CMV [5]; CMV replication study): no cytotoxicity
